pIC50: −log10 of the molar value. Calls of active or inactive are those of the source. The calls are words filed in the database; no cut-off is given here.
Assays:
[1] = target: T1, Stimulator of interferon genes protein (Homo sapiens, UniProt Q86WV6, G230A/R293Q/R71H); experiment: Inhibition of cGAMP-induced STING HAQ mutant transfected in human THP1-Blue ISG cells preincubated with compound for 6 hrs followed by cGAMP addition and measured after 18 hrs by QUANTI-Blue based microplate reader analysis; type: cell-based
T1 sequence (Q86WV6 whole entry R71H/G230A/R293Q): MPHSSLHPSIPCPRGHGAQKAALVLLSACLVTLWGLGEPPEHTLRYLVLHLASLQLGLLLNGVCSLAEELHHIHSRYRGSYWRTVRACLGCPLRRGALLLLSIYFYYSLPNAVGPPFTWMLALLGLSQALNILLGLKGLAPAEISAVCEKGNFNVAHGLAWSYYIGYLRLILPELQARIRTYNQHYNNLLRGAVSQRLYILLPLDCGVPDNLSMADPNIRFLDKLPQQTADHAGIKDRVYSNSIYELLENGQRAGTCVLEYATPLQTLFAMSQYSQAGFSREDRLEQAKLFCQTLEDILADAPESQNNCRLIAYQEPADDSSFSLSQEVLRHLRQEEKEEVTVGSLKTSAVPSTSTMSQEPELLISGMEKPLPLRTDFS

[2] = Cytotoxicity against human THP1-Blue ISG cells assessed as inhibition of cell growth at 10 uM incubated for 24 hrs by MTS assay relative to control; type: toxicity, cell-based
[3] = target: T1, Stimulator of interferon genes protein; experiment: Inhibition of diABZI-induced STING HAQ mutant transfected in human THP1-Blue ISG cells preincubated with compound for 6 hrs followed by diABZI addition and measured after 18 hrs by QUANTI-Blue based microplate reader analysis; type: cell-based
[4] = target: T2, Stimulator of interferon genes protein (Homo sapiens, UniProt Q86WV6); experiment: Inhibition of cGAMP-induced STING R232 mutant transfected human THP-1 cells preincubated with compound for 6 hrs followed by cGAMP addition and measured after 18 hrs by QUANTI-Luc based microplate reader analysis; type: cell-based
Target sequence in this assay (Q86WV6 whole entry, looked up, change not shown): as the sequence (Q86WV6 whole entry R71H/G230A/R293Q) above, with H71R, A230G, Q293R counted along it

[5] = target: T3, Stimulator of interferon genes protein (Mus musculus, UniProt Q3TBT3); experiment: Inhibition of cGAMP-induced mouse STING transfected in human THP-1 cells preincubated with compound for 6 hrs followed by cGAMP addition and measured after 18 hrs by QUANTI-Luc based microplate reader analysis; type: cell-based
T3 sequence (Q3TBT3 whole entry): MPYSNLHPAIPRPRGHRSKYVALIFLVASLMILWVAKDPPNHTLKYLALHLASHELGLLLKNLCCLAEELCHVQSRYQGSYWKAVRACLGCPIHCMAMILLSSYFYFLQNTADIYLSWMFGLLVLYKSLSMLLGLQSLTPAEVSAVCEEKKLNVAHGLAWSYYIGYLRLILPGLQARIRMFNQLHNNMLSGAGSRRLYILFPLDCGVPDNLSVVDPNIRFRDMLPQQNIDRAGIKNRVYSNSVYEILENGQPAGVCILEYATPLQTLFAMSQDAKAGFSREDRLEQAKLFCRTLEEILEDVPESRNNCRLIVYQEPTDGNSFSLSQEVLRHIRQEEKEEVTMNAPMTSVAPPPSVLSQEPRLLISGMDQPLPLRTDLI

[6] = target: T2, Stimulator of interferon genes protein; experiment: Inhibition of cGAMP-induced STING S154 mutant transfected in human THP-1 cells preincubated with compound for 6 hrs followed by cGAMP addition and measured after 18 hrs by QUANTI-Luc based microplate reader analysis; type: cell-based
Target sequence in this assay (Q86WV6 whole entry, looked up, change not shown): as the sequence (Q86WV6 whole entry R71H/G230A/R293Q) above, with H71R, A230G, Q293R counted along it

[7] = target: T2, Stimulator of interferon genes protein; experiment: Inhibition of STING in human THP-1 cells assessed as inhibition of cGAMP-induced IFN-beta release at 0.05 to 0.5 uM pretreated with compound for 6 hrs followed by cGAMP addition and measured after 18 hrs by ELISA; type: cell-based; details: dose 0.05-0.5 µM, time 24.0 hrs
Target sequence in this assay (Q86WV6 whole entry): as the sequence (Q86WV6 whole entry R71H/G230A/R293Q) above, with H71R, A230G, Q293R counted along it

[8] = target: T4, Stimulator of interferon genes protein (Mus musculus) (UniProt Q3TBT3); experiment: Inhibition of STING in mouse BMDM cells assessed as inhibition of cGAMP-induced IFN-beta release at 0.05 to 0.5 uM pretreated with compound for 6 hrs followed by cGAMP addition and measured after 18 hrs by ELISA; type: cell-based; details: dose 0.05-0.5 µM, time 24.0 hrs
T4 sequence (whole entry): T3 sequence (Q3TBT3 whole entry)

[9] = target: T4, Stimulator of interferon genes protein (Mus musculus); experiment: Inhibition of STING in mouse BMDM cells assessed as inhibition of cGAMP-induced CXCL-10 release at 0.05 to 0.5 uM pretreated with compound for 6 hrs followed by cGAMP addition and measured after 18 hrs by ELISA; type: cell-based; details: dose 0.05-0.5 µM, time 24.0 hrs
[10] = target: T2, Stimulator of interferon genes protein; experiment: Inhibition of STING activation in human THP1-Blue ISG cells assessed as decrease in cGAMP-induced STING phosphorylation at 0.1 to 1 uM preincubated with compound for 6 hrs followed by cGAMP addition and measured after 3 hrs by Western blotting analysis; type: cell-based; details: dose 0.1-1 µM, time 9.0 hrs
Target sequence in this assay (Q86WV6 whole entry): as the sequence (Q86WV6 whole entry R71H/G230A/R293Q) above, with H71R, A230G, Q293R counted along it

[11] = target: T2, Stimulator of interferon genes protein; experiment: Inhibition of STING activation in human THP1-Blue ISG cells assessed as decrease in cGAMP-induced IRF3 phosphorylation at 0.1 to 1 uM preincubated with compound for 6 hrs followed by cGAMP addition and measured after 3 hrs by Western blotting analysis; type: cell-based; details: dose 0.1-1 µM, time 9.0 hrs
Target sequence in this assay (Q86WV6 whole entry): as the sequence (Q86WV6 whole entry R71H/G230A/R293Q) above, with H71R, A230G, Q293R counted along it

[12] = Metabolic stability in mouse liver microsomes assessed as half life at 10 uM in presence of NADPH by LC-MS/MS analysis; type: ADME, Microsome
[13] = Metabolic stability in human liver microsomes assessed as half life at 10 uM in presence of NADPH by LC-MS/MS analysis; type: ADME, Microsome
[14] = Metabolic stability in mouse plasma assessed as half life in presence of NADPH by LC-MS/MS analysis; type: ADME, cell-free
[15] = Metabolic stability in human plasma assessed as half life in presence of NADPH by LC-MS/MS analysis; type: ADME, cell-free
[16] = target: T4, Stimulator of interferon genes protein (Mus musculus); experiment: In vivo inhibition of cGAMP-induced STING activation in autoimmune disease female C57BL/6 mouse model assessed as decrease in cGAMP-induced serum INF-beta level at 10 mg/kg, sc pretreated with compound for 2 hrs followed by cGAMP addition and measured after 3 hrs by ELISA; type: functional, organism-based
[17] = Cmax in mouse at 20 mg/kg, po by LC-MS/MS analysis; type: ADME, organism-based; details: in vivo, read-out: Cmax
[18] = target: T4, Stimulator of interferon genes protein (Mus musculus); experiment: In vivo inhibition of cGAMP-induced STING activation in autoimmune disease female C57BL/6 mouse model assessed as decrease in cGAMP-induced serum CXCL-10 level at 10 mg/kg, sc pretreated with compound for 2 hrs followed by cGAMP addition and measured after 3 hrs by ELISA; type: functional, organism-based

| pIC50 [1] | pIC50 [3] | pIC50 [4] | pIC50 [5] | pIC50 [6] | inhibition [7] | inhibition [8] | inhibition [9] | inhibition [10] | inhibition [11] | half-life at 10 µM [12] [h] | half-life at 10 µM [13] [h] | half-life [14] [h] | half-life [15] [h] | inhibition [16] | Cmax [17] [nM] | inhibition [18] | SMILES | inhibition at 24 h, 10 µM [2] [%] |
| --- | --- | --- | --- | --- | --- | --- | --- | --- | --- | --- | --- | --- | --- | --- | --- | --- | --- | --- |
| 7.10 | 7.10 | 7.52 | 7.52 | 6.59 | Active | Active | Active | Active | Active | > 1 | > 1 | > 4 | > 4 | Active | 200 | Active | COc1ccc2c(c1)C(=O)N(c1ccc(C(C)(C)C)c(Cl)c1)C(c1cc3cc(-c4ccc(C(=O)Nc5ccc(O)c(NS(C)(=O)=O)c5)cc4)ccc3o1)C2C(N)=O (stereo not given) | 37.3 |
| 7.00 | 6.96 | 7.52 | 7.70 | 6.68 | Active | Active | Active | Active | Active | > 1 | > 1 | – | > 4 | Active | 200 | Active | CC(C)(C)c1ccc(N2C(=O)c3ccccc3C(C(N)=O)C2c2cc3cc(-c4ccc(C(=O)Nc5ccc(O)c(NS(C)(=O)=O)c5)cc4)ccc3o2)cc1Cl (stereo not given) | 36.5 |

Reference: ChEMBL document CHEMBL6182913, “Design of Potent Small-Molecule Stimulator of Interferon Gene Inhibitor and Stimulator of Interferon Gene Mutant-Specific Degrader” (J Med Chem, 2025)
